Structures are written as SMILES. Counter-ions that a name gives are not always drawn. Bridge positions count the residues as written; N and C are the ends. Square brackets hold non-standard residues; d marks the D form. Peptide text beside a SMILES is read from it. hArg = N=C(N)NCCCC[C@H](N)C(=O)O; Mpa = O=C(O)CCS

The assay has as its target T1, fibroblast activation protein (FAP; rhFAP, SLIN-tagged hFAP) (Homo sapiens, UniProt Q12884).
T1 sequence (Q12884 35-760): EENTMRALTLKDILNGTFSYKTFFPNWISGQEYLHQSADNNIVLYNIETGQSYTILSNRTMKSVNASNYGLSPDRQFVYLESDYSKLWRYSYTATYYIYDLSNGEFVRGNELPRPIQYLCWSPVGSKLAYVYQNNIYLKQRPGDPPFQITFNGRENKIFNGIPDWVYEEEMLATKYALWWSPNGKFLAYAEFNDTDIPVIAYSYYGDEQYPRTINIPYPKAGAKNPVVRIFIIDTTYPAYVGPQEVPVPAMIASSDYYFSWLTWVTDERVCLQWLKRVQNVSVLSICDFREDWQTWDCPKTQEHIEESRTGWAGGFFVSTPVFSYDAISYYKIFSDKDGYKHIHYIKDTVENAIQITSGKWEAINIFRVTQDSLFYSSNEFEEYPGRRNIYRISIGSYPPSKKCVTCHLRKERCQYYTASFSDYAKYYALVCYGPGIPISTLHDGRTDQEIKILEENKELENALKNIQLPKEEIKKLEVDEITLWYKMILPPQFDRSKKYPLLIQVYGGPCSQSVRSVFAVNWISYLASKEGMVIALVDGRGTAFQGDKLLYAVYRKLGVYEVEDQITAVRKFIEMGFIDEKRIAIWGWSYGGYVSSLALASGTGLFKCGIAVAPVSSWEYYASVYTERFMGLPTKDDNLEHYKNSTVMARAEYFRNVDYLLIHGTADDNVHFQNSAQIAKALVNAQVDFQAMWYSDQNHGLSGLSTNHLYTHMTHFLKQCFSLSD
The assay can be described thus: biochemical.
Take `Cc1nnc(SCC2=C(C(=O)O)N3C(=O)[C@@H](NC(=O)Cn4cc(Cl)c(=O)c(Cl)c4)[C@H]3SC2)s1` [Cefazedone]: affinity was put at a Ki of 25.6 µM. With `CC(C)=CCOc1ccc(/C=C/C(=O)c2ccc(OCC=C(C)C)cc2OCC(=O)O)cc1` [Sofalcone], the Ki came to 16 µM. In turn, `Cn1c(CCCC(=O)O)nc2cc(N(CCCl)CCCl)ccc21` [Bendamustine] showed a Ki of 25 µM. The compound `O=c1cc(-c2ccccc2)oc2cc(O)c(O)c(O)c12` [Baicalein] returned a Ki of 36.8 µM. The figure for `CC(C)(O/N=C(\C(=O)N[C@@H]1C(=O)N2C(C(=O)[O-])=C(C[n+]3ccccc3)CS[C@H]12)c1csc(N)n1)C(=O)O` [Ceftazidime (pentahydrate)] is 20.8 µM; for `CCOC(=O)[C@@](C)(N)Cc1ccc(O)c(O)c1` [Methyldopate] it is 29.6 µM. `CCC(=O)O[C@@H](O[P@](=O)(CCCCc1ccccc1)CC(=O)N1C[C@H](C2CCCCC2)C[C@H]1C(=O)O)C(C)C` [Fosinopril (sodium)] showed a Ki of 11.6 µM. For the compound `CC[C@@H]1C(=O)N(C)c2cnc(Nc3ccc(C(=O)N[C@H]4CC[C@H](N5CCN(CC6CC6)CC5)CC4)cc3OC)nc2N1C(C)C` [Volasertib], the Ki worked out at 10.9 µM.

Turning to `CN(C)c1ccc2nc3ccc(=[N+](C)C)cc-3sc2c1` [Methylene blue (trihydrate)], the Ki was determined as 19 µM. The value for `COc1cc(C)c2c(Oc3cccc(C(F)(F)F)c3)c(OC)cc(NC(C)CCCN)c2n1` (stereo not drawn) [Tafenoquine (Succinate)] was 16.3 µM; that for `N=C(N)NCCCC[C@@H]1NC(=O)CCSSC[C@@H](C(N)=O)NC(=O)[C@@H]2CCCN2C(=O)[C@H](Cc2c[nH]c3ccccc23)NC(=O)[C@H](CC(=O)O)NC(=O)CNC1=O` [Eptifibatide] ([Mpa][hArg]GDWPC-NH2; disulfide 1-7) was 27.8 µM. The figure for `Cc1ncc(NC(=O)c2ccc(CN3CCN(C)CC3)c(C(F)(F)F)c2)cc1Nc1nccc(-c2cccnc2)n1` [Flumatinib (mesylate)] is 12.2 µM; for `COC(=O)c1ccc2c(c1)NC(=O)/C2=C(\Nc1ccc(N(C)C(=O)CN2CCN(C)CC2)cc1)c1ccccc1` [Nintedanib esylate] it is 27.7 µM.

For `NCc1ccccc1CC(=O)N[C@@H]1C(=O)N2C(C(=O)O)=C(CSc3nnnn3CC(=O)O)CS[C@H]12` [Ceforanide], the Ki is 10.7 µM. The value for `COCC1=C(C(=O)OC(C)OC(=O)OC(C)C)N2C(=O)[C@@H](NC(=O)/C(=N\OC)c3csc(N)n3)[C@H]2SC1` (stereo partly drawn) [Cefpodoxime Proxetil] was 34.6 µM; that for `CN1Cc2c(Cl)cc(Cl)cc2[C@H](c2cccc(S(=O)(=O)NCCOCCOCCNC(=O)NCCCCNC(=O)NCCOCCOCCNS(=O)(=O)c3cccc([C@@H]4CN(C)Cc5c(Cl)cc(Cl)cc54)c3)c2)C1` [Tenapanor] was 24.9 µM; that for `C=CCN1C[C@H](C(=O)N(CCCN(C)C)C(=O)NCC)C[C@@H]2c3cccc4[nH]cc(c34)C[C@H]21` [Cabergoline] was 17.5 µM.

Take `Cc1ccc(NC(=O)C2(c3ccc4c(c3)OC(F)(F)O4)CC2)nc1-c1cccc(C(=O)O)c1` [Lumacaftor]: the Ki amounted to 10.1 µM. `CCOC(=O)OC(C)OC(=O)[C@@H]1N2C(=O)[C@@H](NC(=O)[C@H](N)c3ccccc3)[C@H]2SC1(C)C` (stereo partly drawn) [Bacampicillin (hydrochloride)] displayed a Ki of 12.7 µM. Turning to `COc1cc(NCc2ccc3nc(N)nc(N)c3c2C)cc(OC)c1OC` [Trimetrexate], the Ki came to 27.2 µM.

In the case of `CC/C=C\C/C=C\C/C=C\C/C=C\C/C=C\CCCC(=O)O` [Eicosapentaenoic Acid], the Ki was 15.8 µM. The value for `CC(C)C[C@H](NC(=O)CNC(=O)c1cc(Cl)ccc1Cl)B1OC(=O)C(CC(=O)O)(CC(=O)O)O1` [Ixazomib citrate] was 25.1 µM.

On to `CCCCc1nc(C)c(CC(=S)N(C)C)c(=O)n1Cc1ccc(-c2ccccc2-c2nnn[nH]2)cc1` [Fimasartan], for which the Ki amounted to 14.6 µM. The value for `O=NN(CCCl)C(=O)NCCCl` [Carmustine] was 17.1 µM.

The values are drawn from article doi:10.1101/2024.06.25.600598v1 (biorxiv, 2024).
